Data published in PubChem BioAssay AID1033 (Sanford-Burnham Center for Chemical Genomics, 2008).
The source made the active and inactive calls. No rule for the calls is given here.

These molecules were tested against Chaperone protein DnaK (Escherichia coli (strain K12)) (UniProt P0A6Y8) (assay: E. coli DnaK SBD ligand binding – biophysical, NMR, chaperone (AID 1033)). Details: Purified DnaK SBD.
Chain of Chaperone protein DnaK (Escherichia coli (strain K12)) (P0A6Y8 whole entry, looked up): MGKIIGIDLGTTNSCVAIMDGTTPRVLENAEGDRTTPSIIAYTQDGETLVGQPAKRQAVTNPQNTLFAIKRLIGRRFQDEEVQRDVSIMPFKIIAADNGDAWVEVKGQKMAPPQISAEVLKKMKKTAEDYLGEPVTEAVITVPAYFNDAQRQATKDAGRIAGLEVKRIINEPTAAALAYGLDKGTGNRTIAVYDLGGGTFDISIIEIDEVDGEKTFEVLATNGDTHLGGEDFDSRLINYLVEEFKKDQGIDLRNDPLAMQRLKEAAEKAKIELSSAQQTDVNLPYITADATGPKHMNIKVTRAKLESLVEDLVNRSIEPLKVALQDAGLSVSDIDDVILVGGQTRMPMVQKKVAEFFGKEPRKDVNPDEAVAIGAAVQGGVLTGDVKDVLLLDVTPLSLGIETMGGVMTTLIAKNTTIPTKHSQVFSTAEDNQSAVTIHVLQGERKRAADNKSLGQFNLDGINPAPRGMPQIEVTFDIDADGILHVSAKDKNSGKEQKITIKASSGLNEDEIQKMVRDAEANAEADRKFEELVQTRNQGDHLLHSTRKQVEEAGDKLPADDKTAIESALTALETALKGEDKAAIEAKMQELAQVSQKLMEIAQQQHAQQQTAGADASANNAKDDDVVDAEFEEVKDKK

| Compound | Kd |
| --- | --- |
| Cc1cc(SCC(=O)c2ccccc2)nc(=O)[nH]1 | > 4 mM (inactive) |
| C=Cc1c(C)c2cc3[nH]c(cc4nc(cc5nc(cc1[nH]2)C(C)=C5CCC(=O)O)C(CCC(=O)O)=C4C)c(C)c3C=C | > 4 mM (inactive) |
| CC1(C)C(=O)[C@@H]2O[C@@H]2[C@@]2(C)C1C[C@@H](O)[C@]1(C)C2CC[C@@]2(C)[C@H](c3ccoc3)OC(=O)C3OC321 (some centres not stated) | > 4 mM (inactive) |
| CCOC(=O)c1csc(C2COc3ccccc3O2)n1 (configuration not stated) | > 4 mM (inactive) |
| CC(=O)c1cc2c(cc1O)OC(C)(C)C=C2 | > 4 mM (inactive) |
| COc1ccc(C(C)=O)c(OC)c1 | > 4 mM (inactive) |
| OC1CC(c2ccccc2)NC2(CCCC2)C1 (configuration not stated) | > 4 mM (inactive) |
| COc1cc(C(=S)N2CCC(C(N)=O)CC2)ccc1O | > 4 mM (inactive) |
| CO[C@H]1[C@@H](O)[C@@H](C)O[C@H](O[C@H]2CCC3(C)C4CCC5(C)[C@@H](C6=CC(=O)OC6)CC[C@]5(O)[C@@H]4CC[C@]3(O)C2)[C@@H]1O (some centres not stated) | > 4 mM (inactive) |
| CNC(=O)Nc1ccc(C(=O)NC)cc1 | > 4 mM (inactive) |
| NC(=O)CSc1nc2ccccc2c(=O)[nH]1 | > 4 mM (inactive) |
| Cc1cc(C(=O)Nc2sc(C)c(C)c2C#N)no1 | > 4 mM (inactive) |
| Cc1nc(N)sc1C(=O)Nc1nccs1 | > 4 mM (inactive) |
| O=c1oc2ccccc2cc1O | > 4 mM (inactive) |
| COc1ccc2ccc(=O)oc2c1CC=C(C)C | > 4 mM (inactive) |
| Nc1nnc(C(F)(F)F)s1 | > 4 mM (inactive) |
| COc1cc(/C=C/C(=O)O)ccc1O | > 4 mM (inactive) |
| O=c1ccn(Cc2ccccc2)c(=O)[nH]1 | > 4 mM (inactive) |
| O=C(c1cccc(C(F)(F)F)c1)N1CCCC1 | > 4 mM (inactive) |
| CN(C(=O)c1cc2cccnc2n(C)c1=O)c1ccccc1 | > 4 mM (inactive) |
| CN(C)c1ccc(N2C(=O)CCC2=O)cc1 | > 4 mM (inactive) |
| Cc1ccc(N2CCN(C(=O)c3ccccc3)CC2)c(C)c1 | > 4 mM (inactive) |
| CC(C)=NNC(=O)C(=O)Nc1ccc(F)cc1 | > 4 mM (inactive) |
| COC(=O)c1ccccc1N(C)S(C)(=O)=O | > 4 mM (inactive) |

| Compound | Kd |
| --- | --- |
| CNC(=O)C1CCCN(S(C)(=O)=O)C1 (configuration not stated) | > 4 mM (inactive) |
| Cc1ncc(CC(=O)O)s1 | > 4 mM (inactive) |
| Cc1ccccc1CSc1nnc(C)n1N | > 4 mM (inactive) |
| Cn1c2ccccc2n2c(=S)[nH]nc12 | > 4 mM (inactive) |
| Cc1ccccc1-n1c(N)cc(=O)[nH]c1=S | > 4 mM (inactive) |
| O=C(O)C1CSC(c2ccc(Cl)cc2)N1 (configuration not stated) | > 4 mM (inactive) |
| O=S(=O)(c1cccc(Cl)c1)N1CCCC1 | > 4 mM (inactive) |
| O=c1c2ccccc2oc2ccccc12 | > 4 mM (inactive) |
| CCOC(=O)c1c(C)[nH]c2ccc(O)cc12 | > 4 mM (inactive) |
| NC(=O)CSc1nc2ccccc2[nH]1 | > 4 mM (inactive) |
| Nc1cc(=O)[nH]c(=S)n1-c1ccc(F)cc1 | > 4 mM (inactive) |
| Cc1nc2ccccc2c2c1C(=O)N(N)C2=O | > 4 mM (inactive) |
| CC1=C(C(N)=O)C(c2ccccc2)NC(=O)N1 (configuration not stated) | > 4 mM (inactive) |
| CC1=CCc2c(cc3oc(C)cc(=O)c3c2O)OC1 | > 4 mM (inactive) |
| O=C(CS(=O)(=O)c1ccccc1)Nc1nccs1 | > 4 mM (inactive) |
| S=C(NC1CC1)NN1CCOCC1 | > 4 mM (inactive) |
| c1ccc(-c2noc(-c3ccc4c(c3)OCO4)n2)nc1 | > 4 mM (inactive) |
| Cc1ccc(C)n1NC(=O)c1cccs1 | > 4 mM (inactive) |
| CNC(=S)Nc1cccc(C(=O)O)c1 | > 4 mM (inactive) |
| O=C(OCc1c(Cl)cccc1Cl)c1cnccn1 | > 4 mM (inactive) |
| Cc1nnc(SCc2ccc(F)cc2)s1 | > 4 mM (inactive) |
| NCc1ccc2c(c1)OCCCO2 | > 4 mM (inactive) |
| S=c1nc[nH]c2c1cnn2-c1ccccc1 | > 4 mM (inactive) |
| CCOC(=O)c1c(C)nc2cc(C)ccn12 | > 4 mM (inactive) |

| Compound | Kd |
| --- | --- |
| Cc1cc(C)n2c(SCc3cccs3)nnc2n1 | > 4 mM (inactive) |
| NS(=O)(=O)c1ccc(N2CCCC2=O)cc1 | > 4 mM (inactive) |
| Nc1nc2n(c1C(=O)c1ccccc1)CCC2 | > 4 mM (inactive) |
| COC(=O)CCC(C)[C@H]1CCC2C3C(C[C@H](O)[C@@]21C)[C@@]1(C)CC[C@@H](O)C[C@H]1C[C@H]3O (some centres not stated) | > 4 mM (inactive) |
| COC(=O)N(c1ccccc1)P1(=S)OCCO1 | > 4 mM (inactive) |
| NC(=O)c1cccc(N2C(=O)C=CC2=O)c1 | > 4 mM (inactive) |
| O=c1oc(-c2ccccc2)nc2c1cnn2-c1ccccc1 | > 4 mM (inactive) |
| CC(=O)O[C@H]1CC[C@@]2(C)C(CC[C@]3(C)C2CC=C2C4CC(C)(C)CC[C@]4(C)CC[C@]23C)C1(C)C (some centres not stated) | > 4 mM (inactive) |
| CN(C)CCNC(CC(=O)Nc1ccccc1)C(=O)O (configuration not stated) | > 4 mM (inactive) |
| COc1ccc(-c2cc(=O)c3c(OC)c(OC)c(OC)c(OC)c3o2)cc1OC | > 4 mM (inactive) |
| C[C@@H]1CC[C@@]23CCC4(C)[C@@](C=CC5[C@@]6(C)CC[C@H](O)C(C)(C)C6CC[C@]54C)(OC2=O)C3[C@H]1C (some centres not stated) | > 4 mM (inactive) |
| O=C1NCC(=O)N2CCc3ccccc3C12 (configuration not stated) | > 4 mM (inactive) |
| Cn1nnc2cc(C(=O)NC3=NCCS3)ccc21 | > 4 mM (inactive) |
| N#Cc1cc2c(nc1SCc1ccncc1)CCC2 | > 4 mM (inactive) |
| O=C(O)c1ccc(Nc2nncc(=O)[nH]2)cc1 | > 4 mM (inactive) |
| O=C(O)c1ccc(NC(=O)c2cccs2)cc1 | > 4 mM (inactive) |
| O=C(CSc1ccc(Cl)cc1)N1CCOCC1 | > 4 mM (inactive) |
| Fc1cccc(Cl)c1CN1CCCNCC1 | > 4 mM (inactive) |
| Cn1cnc2nc3n(c2c1=O)CCC3 | > 4 mM (inactive) |
| CC(=O)Nc1ccc(Nc2nnc(C)c(=O)[nH]2)cc1 | > 4 mM (inactive) |
| COc1c(O)cc2c(c1O)[C@H]1O[C@H](CO)[C@@H](O)[C@H](O)[C@@H]1OC2=O | > 4 mM (inactive) |
| CN1CCN(C(=S)c2ccc(N(C)C)cc2)CC1 | > 4 mM (inactive) |
| CCOc1nc(C)ccc1-c1noc(-c2ccco2)n1 | > 4 mM (inactive) |
| O=c1cc(-c2cc(O)c(O)c(O)c2)oc2cc(O)cc(O)c12 | > 4 mM (inactive) |

| Compound | Kd |
| --- | --- |
| COC(=O)c1c(OC)cc2c(c1C)Oc1c(Cl)c(O)c(Cl)c(C)c1C(=O)O2 | > 4 mM (inactive) |
| Cn1ncc(SCc2ccco2)c(Cl)c1=O | > 4 mM (inactive) |
| Cc1ccc(CN2C3=NC(=O)CN3c3ccccc32)cc1 | > 4 mM (inactive) |
| CN(C)S(=O)(=O)c1cccc(N)c1 | > 4 mM (inactive) |
| COc1ccc2c(c1)OCC(Cc1ccc(OC)c(OC)c1)C2=O (configuration not stated) | > 4 mM (inactive) |
| CC1(C)C=Cc2cc3ccc(=O)oc3cc2O1 | > 4 mM (inactive) |
| COC1=CC(=O)C[C@@H](C)[C@]12Oc1c(Cl)c(OC)cc(OC)c1C2=O | > 4 mM (inactive) |
| CC(=O)c1nnc2cc(C)nn2c1C | > 4 mM (inactive) |
| Cc1cc(NC(=O)c2ccccc2C(=O)O)no1 | > 4 mM (inactive) |
| Cc1nc2ccccc2c(=O)n1/N=C/c1ccco1 | > 4 mM (inactive) |
| CCc1noc(C)c1C(=O)N1CCOCC1 | > 4 mM (inactive) |
| COC1(C)CCC2OC2(C)CCC2C1CC2(C)C (configuration not stated) | > 4 mM (inactive) |
| Cc1cc(C)n(C/C=C/Cn2nc(C)cc2C)n1 | > 4 mM (inactive) |
| Cc1nc(-c2ccccc2)ncc1C(=O)O | > 4 mM (inactive) |
| Cc1ccc(-c2nc(-c3cccnc3)no2)cc1 | > 4 mM (inactive) |
| CC(=O)O[C@H]1C[C@@H](OC(C)=O)C(C)(C)C2CC(=O)[C@]3(C)C(CC[C@@]4(C)[C@H](C(=O)O)OC(=O)C5OC543)[C@]21C (some centres not stated) | > 4 mM (inactive) |
| O=C(O)CCC(=O)c1cccc2ccccc12 | > 4 mM (inactive) |
| C=CCCCCCCCCCCCC(O)CC(O)COC(C)=O (configuration not stated) | > 4 mM (inactive) |
| CCCn1c(C)cc(=O)[nH]c1=O | > 4 mM (inactive) |
| O=C(c1ccccc1-c1ccccc1)N1CCOCC1 | > 4 mM (inactive) |
| CC1CN(Cc2ccccn2)CCC1=O (configuration not stated) | > 4 mM (inactive) |
| CN(C)c1ccc(C2CC(=O)CC(=O)C2)cc1 | > 4 mM (inactive) |
| C=C[C@H]1CN2CC[C@H]1C[C@@H]2[C@H](O)c1ccnc2ccccc12 | > 4 mM (inactive) |
| CC(=O)Nc1ccn(-c2ccccc2)n1 | > 4 mM (inactive) |

| Compound | Kd |
| --- | --- |
| Cc1ccc2cc(C(=O)O)ccc2n1 | > 4 mM (inactive) |
| Cc1ccc(C(=O)n2cnnc2N)cc1C | > 4 mM (inactive) |
| O=P1(O)c2ccccc2Nc2ccccc21 | > 4 mM (inactive) |
| COc1cc2nc(-c3cccs3)oc(=O)c2cc1OC | > 4 mM (inactive) |
| CCOC(=O)N1CCN(c2ncnc3c2cnn3C)CC1 | > 4 mM (inactive) |
| CC(C)n1nnc2cc(C(=O)O)ccc21 | > 4 mM (inactive) |
| COc1ccc(CN2CCC(O)CC2)c(O)c1 | > 4 mM (inactive) |
| COC(=O)Cc1cc(=O)n(-c2nc3ccccc3s2)[nH]1 | > 4 mM (inactive) |
| Nc1ccc2c(c1)C(=O)OC2 | > 4 mM (inactive) |
| Nc1cccc(OC(F)(F)F)c1 | > 4 mM (inactive) |
| C=C(C)[C@@H]1[C@H]2OC(=O)[C@@H]1[C@]1(O)C[C@H]3O[C@]34C(=O)O[C@H]2[C@]14C | > 4 mM (inactive) |
| COc1cccc(-c2cc(=O)c3cc(OC)ccc3o2)c1 | > 4 mM (inactive) |
| COC(=O)c1cccs1 | > 4 mM (inactive) |
| O=C(O)c1c[nH]c2ccccc12 | > 4 mM (inactive) |
| O=C(Nc1ccccc1)c1cnc2n(c1=O)CCS2 | > 4 mM (inactive) |
| Cc1cc(C(F)(F)F)nn1CC(N)=O | > 4 mM (inactive) |
| Cc1onc(-c2c(F)cccc2Cl)c1C(N)=O | > 4 mM (inactive) |
| CN(C)C1CCS(=O)(=O)C1 (configuration not stated) | > 4 mM (inactive) |
| O=S1(=O)C=CC(Nc2ccccc2)C1 (configuration not stated) | > 4 mM (inactive) |
| O=C1CSC(=NC(=O)c2ccccc2)N1 | > 4 mM (inactive) |
| O=C(O)c1cccnc1-c1nc2ccccc2s1 | > 4 mM (inactive) |
